Tests used:
platelet aggregation [1] = assay: Platelet aggregation-inhibiting activity in vitro (collagen, platelet-rich plasma); format: cell-based, male SD rats; details: final concentration 100 μg/ml, rat PRP, 37° C.
Method: (§1) Blood was collected from the abdominal aorta of male SD rats (body weight: 250-300 g) which were anesthetized with ether. Nine volumes of said blood were mixed with one volume of an aqueous 3.8% (w/v) trisodium citrate solution, and the mixture was centrifuged at 500×g for 5 minutes to give platelet-rich plasma (hereinafter referred to as "PRP") as the supernatant solution. The bottom layer was further centrifuged at 1000×g for 10 minutes to give platelet-poor plasma (hereinafter referred to as "PPP") as the supernatant solution. PRP was diluted with PPP so that the blood platelet count was 8-10×10^5 cells/mm^3.Then, a mixture of 200 μl of said diluted PRP and 25 μl of a test compound solution (final concentration: 100 μg/ml) was introduced into a glass cell of SIENCO aggregometer (Sienco Inc., Morrison, Colo. Model DP-247-D). After the mixture was stirred at 1100 rpm at 37° C. for 2 minutes, 25 μl of a collagen solution (prepared by Holmsen's method described in Biochim. Biophys. Acta, Vol. 186, page 254(1969)) was added thereto, and the percentage inhibition of platelet aggregation was calculated in accordance with the following formula from the degree of the platelet aggregation which was estimated by Born's method (Nature, 194, page 927(1962)). [formula]

platelet aggregation [2] = assay: Platelet aggregation-inhibiting activity after oral administration (ex vivo); format: in vivo; details: Rattus norvegicus, 1 h, 100 mg/kg oral, blood collected one hour after administration, SD rats, read-out: Percentage inhibition of platelet aggregation (%)
Method: as §1, with “PRP was diluted with PPP so that the blood platelet count was 8-10×10^5 cells/mm^3.Then, a mixture of 200 μl of said diluted PRP and 25 μl of a test compound solution (final concentration: 100 μg/ml) was introduced into a glass cell of SIENCO aggregometer (Sienco Inc., Morrison, Colo. Model DP-247-D).” left out, “[formula]” left out
A test compound was suspended in a solution containing 0.25% of carboxymethylcellulose (sodium salt) and 0.01% of Tween 80, and the suspension was administered orally to make SD rats (a group of 4 rats). […] Thereafter, said blood was treated in the same manner as described in Experiment 2, and the percentage inhibition of platelet aggregation was calculated in accordance with the following formula: [formula]

serum cholesterol = assay: Hypolipidemic activity: decrease in serum cholesterol; format: in vivo; details: 50 mg % in diet, one week, male SD rats
Method: (§2) A test compound (50 mg %) was added to a commercial diet, and male SD rats (body weight: 120-140 g, a group of 5 rats) were fed with the diet ad libitum for one week. After the experimental period, blood was collected from the tail vein of the rats under ether anesthesia. Then, liver was excised from the rats and the weight thereof was measured. On the other hand, serum cholesterol and serum triglyceride were measured according to the methods of Zak (Amer. J. Clin. Pathol., Vol. 24, page 1307(1954)) and Van Handel-Zilversmit (J. Lab. & Clin. Med., Vol. 50, page 152(1957)), respectively. Based on the results obtained above, the decrease (%) in serum cholesterol or triglyceride and increase (%) in liver weight were calculated by the following formulae: [formula]

serum triglyceride = assay: Hypolipidemic activity: decrease in serum triglyceride; format: in vivo; details: 50 mg % in diet, one week, male SD rats
Method: as §2

liver = assay: Increase in liver weight (hypolipidemic experiment); format: in vivo; details: 50 mg % in diet, one week, male SD rats
Method: as §2

mice = assay: Acute oral toxicity in mice; format: in vivo; details: 1000 mg/kg oral, 7 days after administration
Source text: The compound (I) (R^2 =H) of the present invention can be used for pharmaceutical use in the form of either a free acid or a pharmaceutically acceptable salt thereof. Pharmaceutically acceptable salts of the compound (I) (R^2 =H) include, for example, alkali metal salts such as sodium and potassium salts; alkaline earth metal salts such as calcium and magnesium salts; salts thereof with amino acids such as lysine, ornithine, arginine and histidine salts; and ammonium salt. Such pharmaceutically acceptable salts may be prepared, for example, by neutralizing the free acid with a stoichiometrically equimolar amount of a base such as an alkali metal hydroxide, an alkaline earth metal hydroxide, ammonia or a basic amino acid. The compound (I) and a salt thereof can be administered either orally or parenterally. For oral administration, the compound (I) or a salt thereof may be used in the form of tablets, powder, capsules, granules and the like. Known medicinal excipients such as calcium carbonate, calcium phosphate, corn starch, potato starch, sugar, lactose, talc, magnesium stearate and so forth may be used in making these pharmaceutical preparations. Alternatively, the compound (I) or a salt thereof may be used for oral administration in the form of aqueous or oily suspensions, solutions, syrps or elixirs. […]

Question: With `CC(C)c1oc(-c2ccccc2)nc1CC(=O)O` [2-(2-phenyl-5-isopropyl-4-oxazolyl)acetic acid] as the compound, how does the inhibition at 100 µg/mL (platelet aggregation [1]) read?
Answer: ≥ 10%

Question: What about the inhibition at 100 mg/kg (platelet aggregation [2]) of the same compound?
Answer: 97 ± 2%

Question: For `CC(C)c1oc(-c2ccc(Cl)cc2)nc1CC(=O)O` [2-[2-(4-chlorophenyl)-5-isopropyl-4-oxazolyl]acetic acid], which “Decrease (%) in serum cholesterol” value (serum cholesterol) is on record?
Answer: 12%

Question: What about the “Decrease (%) in serum triglyceride” value (serum triglyceride) of the same compound?
Answer: 39%

Question: And the inhibition at 100 µg/mL (platelet aggregation [1])?
Answer: ≥ 10%

Question: Which “Decrease (%) in serum cholesterol” value (serum cholesterol) does the source give for `Cc1oc(-c2ccc(Cl)cc2)nc1CC(=O)O` [2-[2-(4-chlorophenyl)-5-methyl-4-oxazolyl]acetic acid] here?
Answer: 14%

Question: What about the “Decrease (%) in serum triglyceride” value (serum triglyceride) of the same compound?
Answer: 48%

Question: What does the source list for `CCCCCc1oc(-c2ccc(Cl)cc2)nc1CC(=O)O` [2-[2-(4-chlorophenyl)-5-n-pentyl-4-oxazolyl]acetic acid]?
Answer: Decrease (%) in serum cholesterol (serum cholesterol): 19%; Decrease (%) in serum triglyceride (serum triglyceride): 60%

Question: Which results are given for `CC(C)Cc1oc(-c2ccc(F)cc2)nc1CC(=O)O` [2-[2-(4-fluorophenyl)-5-isobutyl-4-oxazolyl]acetic acid]?
Answer: Decrease (%) in serum cholesterol (serum cholesterol): 11%; Decrease (%) in serum triglyceride (serum triglyceride): 51%

Question: Which “Decrease (%) in serum cholesterol” value (serum cholesterol) does the source give for `CC(C)c1oc(-c2ccc(F)cc2)nc1CC(=O)O` [2-[2-(4-fluorophenyl)-5-isopropyl-4-oxazolyl]acetic acid] here?
Answer: 21%

Question: What about the “Decrease (%) in serum triglyceride” value (serum triglyceride) of the same compound?
Answer: 42%

Question: And the inhibition at 100 µg/mL (platelet aggregation [1])?
Answer: ≥ 10%

Question: What does the source list for `CCOC(=O)C(C)(C)Oc1ccc(Cl)cc1` [Clofibrate, 2-(4-chlorophenoxy)-2-methylpropanoic acid ethyl ester, reference compound]?
Answer: Decrease (%) in serum cholesterol (serum cholesterol): 15%; Decrease (%) in serum triglyceride (serum triglyceride): 16%; increase (%) in liver weight (liver): 12%; inhibition at 100 µg/mL (platelet aggregation [1]): < 10%; inhibition at 100 mg/kg (platelet aggregation [2]): 53 ± 19%

Question: With `CCOC(=O)Cc1nc(-c2ccc(Cl)cc2)oc1CC(C)C` [ethyl 2-[2-(4-chlorophenyl)-5-isobutyl-4-oxazolyl]acetate] as the compound, how does the inhibition at 100 µg/mL (platelet aggregation [1]) read?
Answer: ≥ 10%

Question: `CCOC(=O)Cc1nc(-c2ccc(Cl)cc2)oc1C(C)C` [ethyl 2-[2-(4-chlorophenyl)-5-isopropyl-4-oxazolyl]acetate] was tested. Which “Decrease (%) in serum cholesterol” value (serum cholesterol) did it give?
Answer: 18%

Question: And the “Decrease (%) in serum triglyceride” value (serum triglyceride)?
Answer: 55%

Question: And the inhibition at 100 µg/mL (platelet aggregation [1])?
Answer: ≥ 10%

Question: For `CCOC(=O)Cc1nc(-c2ccc(Cl)cc2)oc1C` [ethyl 2-[2-(4-chlorophenyl)-5-methyl-4-oxazolyl]acetate], which “Decrease (%) in serum cholesterol” value (serum cholesterol) is on record?
Answer: 19%

Question: And the “Decrease (%) in serum triglyceride” value (serum triglyceride)?
Answer: 36%

Question: What about the mortality (mice) of the same compound?
Answer: no mouse dies

Question: `CCCCCc1oc(-c2ccc(Cl)cc2)nc1CC(=O)OCC` [ethyl 2-[2-(4-chlorophenyl)-5-n-pentyl-4-oxazolyl]acetate] was tested. Which “Decrease (%) in serum cholesterol” value (serum cholesterol) did it give?
Answer: 15%

Question: What about the “Decrease (%) in serum triglyceride” value (serum triglyceride) of the same compound?
Answer: 52%

Question: What about the mortality (mice) of the same compound?
Answer: no mouse dies

Question: Which results are given for `CCOC(=O)Cc1nc(-c2ccc(F)cc2)oc1CC(C)C` [ethyl 2-[2-(4-fluorophenyl)-5-isobutyl-4-oxazolyl]acetate]?
Answer: Decrease (%) in serum cholesterol (serum cholesterol): 13%; Decrease (%) in serum triglyceride (serum triglyceride): 66%; inhibition at 100 µg/mL (platelet aggregation [1]): ≥ 10%

Question: Which results are given for `CCOC(=O)Cc1nc(-c2ccc(F)cc2)oc1C(C)C` [ethyl 2-[2-(4-fluorophenyl)-5-isopropyl-4-oxazolyl]acetate]?
Answer: Decrease (%) in serum cholesterol (serum cholesterol): 23%; Decrease (%) in serum triglyceride (serum triglyceride): 33%; inhibition at 100 µg/mL (platelet aggregation [1]): ≥ 10%
